Results reported in patent US20230293433A1, “METHOD OF MANUFACTURING MICELLES FOR DRUG DELIVERY” (Wisconsin Alumni Research Foundation, priority 2022, published 2023).
Values belong to the compound of their own block, whether it stands above or below them.

Columns and labels:
Assay type in all cases: physicochemical
[1] = Encapsulation efficiency and drug loading of PEG-assist micelles (centrifugation, HPLC)
Method: In order to prepare drug-loaded micelles, PTX (at a weight ratio of 1:2 w/w PTX: PEG4kDa-b-PLA2.2kDa corresponding to target loading of ca. 33 wt. %) was added to the mixture prior to heating to 60° C. The amount of water when PTX was present in the formulation was adjusted to aim for 4 mg/mL PTX level. […] The hydration process was performed under different conditions including rapid hydration (vortexing after addition of water) or slow hydration (a two-step hydration protocol consisting of addition of half of the target water volume followed by mixing and then addition of the rest followed by gentle mixing at 50 rpm in a rotary mixer). Micelles with the target loadings of 10 and 20 wt. % as well as 1 mg/mL PTX target level were prepared after optimizing the process parameters and used for other experiments such as stability measurement, scalability study and freeze-drying. To prepare formulations with 1 mg/mL PTX target level at 10 or 20 wt. % target loading, 1 mg PTX together with 9 or 4 mg copolymer were mixed with 170 or 75 mg PEG, respectively, and heated to 60° C. to obtain a transparent mixture. The added amounts of PEG keep the block copolymer concentration at 5.0 wt. % in the mixture. The mixture was cooled down to 40° C., incubated for 2 h followed by hydration with 1 mL DI water at 40° C. to obtain drug-loaded polymeric micelles. The samples were cooled down to room temperature and analyzed.
To measure the encapsulation efficiency, unencapsulated drug was first removed by centrifugation at 10000 g for 10 min. Following centrifugation, 50 μl of supernatant for each sample was mixed with 50 μl DI water and 400 μl acetonitrile (ACN). High performance liquid chromatography (HPLC, Prominence, Shimadzu, Japan) equipped with an autosampler, a C18 column and a UV-Vis detector was employed to measure PTX content. PTX was detected at 228 nm absorption wavelength by injecting 10 μl sample through an 80/20 ACN/water v/v mixture as the mobile phase under the flow rate of 0.5 mL/min. […]

[2] = Particle size, PdI and zeta potential by dynamic light scattering; conditions: PROTAC-loaded PEG-b-PLA micelles, PEG1000, hydrated at 40° C.
Method: Dynamic light scattering (DLS, nano ZS, Malvern) was used to measure particle size distribution and to investigate micelle formation. For particle size analysis, the measurements were carried out at 25° C. using water as dispersant.

[3] = Solubility of PTX in PEG-water mixtures; conditions: all examined PEG molecular weights
Description: To begin with, we measured the solubility of PTX in mixtures of water and PEG of different molecular weights as a function of water content. Hydrophobic drugs such as PTX are highly soluble in liquid PEG. Addition of water, however, if surpasses a critical point, will result in precipitation of PTX (see FIG. 4). This critical point is positioned near 50.0 wt. % water content (or water:PEG 1:1 w/w ratio) for all the examined molecular weights. In other words, presence of equal or larger amount of water in a PEG-water mixture prohibits PTX solubility. Considering the PEG-assist preparation procedure, the water content always well exceeds the critical value in the final product (ca. 85.0, 92.0 or 96.0 wt. % water content at 1 mg/mL PTX level for 10, 20 or 33 wt. % target loading, respectively). Therefore, PEG-water mixture cannot play any solubilization role for PTX in the proposed system, and the drug is expected to mainly reside in the PEG-b-PLA micelles' core.

[4] = Stability of micelle formulations at room temperature; conditions: 20 wt. % target loading, 1 mg/mL, PEG1000, 40° C.
Method: We considered stability, applicability to other drugs and copolymers, scalability and long-term preservation as four more criteria to evaluate the PEG-assist method. The stability of PTX-loaded PEG-b-PLA micelles prepared at 20 wt. % target loading with 1 mg/mL target PTX level is shown in FIG. 9A. All the samples were prepared at saturation temperature i.e. 40° C. […] In other words, PTX remains soluble after 8 hours incubation at room temperature without any significant loss for any of the PEG molecular weights (p>0.05). […] We observed that all the samples were completely transparent without any visual precipitation within the 8 h time frame. […] The inherent incompatibility of PTX with the micelle core can be alleviated using acyl and ester prodrug strategies for physical loading purposes [Tam, Y. T., et al., “Poly (ethylene glycol)-block-poly (d, 1-lactic acid) micelles containing oligo (lactic acid) 8-paclitaxel prodrug: In Vivo conversion and antitumor efficacy” J. Control. Rel., 2019. 298:186-193; Tam, Y. T., J. Gao, and G. S. Kwon, “Oligo (lactic acid) n-paclitaxel prodrugs for poly (ethylene glycol)-block-poly (lactic acid) micelles: loading, release, and backbiting conversion for anticancer activity” J. Am. […]
The samples in Example 16, were monitored for stability after reconstitution. The particle size and PdI was measured at different time points (1, 2 and 7 days).

[5] = PROTAC-loaded PEG-b-PLA micelles, PEG1000, hydrated at 40° C.

SMILES: COc1cc2ncnc(Nc3ccc(F)c(Cl)c3)c2cc1OCCCCCOCCOCCC(=O)N[C@H](C(=O)N1C[C@H](O)C[C@H]1C(=O)NCc1ccc(-c2scnc2C)cc1)C(C)(C)C [Gefitinib-based PROTAC3]
% Drug Loading [1, 5]: 17.2% | % Encapsulation Efficiency [1, 5]: 83.0% | PdI [2]: 0.208 | Size [2]: 34.1 ± 6.5 nm | Zeta potential [2]: 3.39 ± 14.2 mV

SMILES: CC(=O)O[C@H]1C(=O)[C@@]2(C)[C@H]([C@H](OC(=O)c3ccccc3)[C@]3(O)C[C@H](OC(=O)[C@H](O)[C@@H](NC(=O)c4ccccc4)c4ccccc4)C(C)=C1C3(C)C)[C@]1(OC(C)=O)CO[C@@H]1C[C@@H]2O [PTX, Paclitaxel]
critical water content of PEG-water mixture above which PTX precipitates [3]: ~50.0 wt. %

encapsulation efficiency ([1]; 17AAG, 20 wt. % target loading, 1 mg/mL, PEG1000, 40° C.): 80.2±2.1% | time stable at room temperature [4]: at least 24 h
SMILES: C=CCNC1=C2C[C@@H](C)C[C@H](OC)[C@H](O)[C@@H](C)/C=C(\C)[C@H](OC(N)=O)[C@@H](OC)/C=C\C=C(/C)C(=O)NC(=CC1=O)C2=O [Sample 17AAG]
